The text below walks through data of patent US10280198B2, “Therapeutic agents for reducing parathyroid hormone levels” (KAI PHARMACEUTICALS, INC., priority 2009, dated 2019).

Data set [1] addresses T1, human calcium-sensing receptor (CaSR) (Homo sapiens, UniProt P41180).
T1 construct: expressed in transfected cells; host or cells: HEK 293T cells, transiently transfected (lipofectamine 2000); in some cases HEK293 cells stably transfected
T1 sequence (P41180 20-1078): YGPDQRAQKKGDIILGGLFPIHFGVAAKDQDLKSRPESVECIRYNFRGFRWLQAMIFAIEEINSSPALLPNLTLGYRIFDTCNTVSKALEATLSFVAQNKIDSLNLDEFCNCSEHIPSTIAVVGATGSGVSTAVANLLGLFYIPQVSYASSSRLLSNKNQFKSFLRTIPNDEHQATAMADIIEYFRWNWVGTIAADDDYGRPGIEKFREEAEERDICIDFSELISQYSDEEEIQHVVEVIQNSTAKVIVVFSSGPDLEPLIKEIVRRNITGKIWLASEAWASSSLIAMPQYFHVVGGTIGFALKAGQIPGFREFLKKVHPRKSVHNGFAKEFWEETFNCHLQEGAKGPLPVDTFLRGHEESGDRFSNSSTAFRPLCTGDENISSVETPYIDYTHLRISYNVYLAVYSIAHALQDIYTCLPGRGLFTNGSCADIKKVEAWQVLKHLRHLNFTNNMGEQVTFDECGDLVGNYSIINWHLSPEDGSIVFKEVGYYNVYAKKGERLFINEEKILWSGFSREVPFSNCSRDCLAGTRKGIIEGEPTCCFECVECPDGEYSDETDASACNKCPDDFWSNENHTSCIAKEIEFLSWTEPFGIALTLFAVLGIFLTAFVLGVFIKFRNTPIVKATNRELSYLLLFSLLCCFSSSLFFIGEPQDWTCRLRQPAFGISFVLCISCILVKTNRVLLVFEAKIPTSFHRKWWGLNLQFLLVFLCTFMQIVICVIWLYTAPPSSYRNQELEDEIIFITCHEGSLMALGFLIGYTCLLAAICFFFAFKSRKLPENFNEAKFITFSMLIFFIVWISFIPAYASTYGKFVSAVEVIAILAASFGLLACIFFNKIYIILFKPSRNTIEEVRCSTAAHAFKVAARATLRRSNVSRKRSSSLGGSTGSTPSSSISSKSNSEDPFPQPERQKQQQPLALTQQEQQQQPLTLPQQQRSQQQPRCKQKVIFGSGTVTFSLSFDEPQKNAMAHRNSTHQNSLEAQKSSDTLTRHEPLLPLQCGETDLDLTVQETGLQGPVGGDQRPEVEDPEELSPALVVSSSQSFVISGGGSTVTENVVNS
The data set can be described thus: In vitro cell assay in HEK-293 expressing the human calcium-sensing receptor (IP1 production). Type of data set: cell-based. The settings on record: for EC50: Table 5, IP1 production in HEK293 cells expressing human CaSR, eight concentrations in duplicate, read-out: EC50 in CaSR in vitro assay. The method, then:
The activity of a variety of peptides and conjugates was tested against the human CaSR. These studies were conducted by measuring IP1 production in HEK293 cells that express the human CaSR. Each peptide was tested in eight different concentrations, in duplicates, to establish a dose response curve. Curve fitting was performed using GraphPad Prism. In Table 5, and throughout the specification, residues provided in capital letters are L-amino acids, while lower case letters indicate D-amino acids. “Ac” indicates an acetyl capping group, “NH2” indicates an amide capping group, “Ac-bAla” is an acetylated beta-alanine, “GSH” indicates reduced glutathione, “GS” indicates oxidized glutathione, “PEG” refers to polyethylene glycol, “PEG2” and “PEGS” refer to polyethylene glycol moieties of 2 kDa and 5 kDa, respectively, and “Mpa” refers to mercaptopropionic acid.
The day after, these cells were transfected with human CaSR receptor using lipofectamine 2000 transfection reagent 24 hrs post transfection, cells were seeded in 384 well plates at 8,000 cells/well. […] In some cases, EC50 values were determined by measuring inositol monophosphate production in the HEK293 cells, stably transfected with the human calcium-sensing receptor (see Table 1).
Cells were incubated with compounds at various concentrations (1 mM or 300 μM as the highest and further ½ log serial dilutions) at 37° C. for 1.5 hrs before reaction termination. […] In brief, incubation with the compound was terminated by sequentially adding D2 labeled-IP1 and cryptate-labeled anti-IP1 in lysis buffer and further incubating at room temperature for 60 minutes. […] Non-transfected 293 cells were used as negative control.
IP1 concentrations were calculated from standard curves (generated with Graph Pad Prism ver. 4) using known concentrations of IP1 standards.

Data set [2] has as its system rat peritoneal mast cells. The data set is described as follows: In vitro histamine induction in rat peritoneal mast cells. Type of data set: cell-based. Summed up: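 Mast cells from peritoneal lavage of Sprague Dawley rats were incubated with compound at 10 μM for 15 min at 37 °C in HBSS + 25 mM HEPES pH 7.4. Supernatant histamine measured by EIA; response expressed as fold change versus pre-incubation levels.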

For another data set, the system named is plasma PTH. The data set can be described thus: In vivo PTH lowering after IV bolus in isoflurane-anesthetized normal Sprague Dawley rats. More on the design: species or system rat. Conditions: for 0.5 mg/kg IV bolus % PTH AUC of saline control: normal rats, AUC 1-4 h. A digest of the protocol: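 Peptides were given as a 0.5 mg/kg IV bolus to normal Sprague Dawley rats kept under isoflurane throughout, with saline bolus controls.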

Square brackets hold non-standard residues; d marks the D form. Peptide text beside a SMILES is read from it. βAla = NCCC(=O)O

By EC50 is commonly meant the midpoint of the concentration-response curve. As for `CC(=O)N[C@H](CS)C(=O)N[C@H](Cc1ccc(O)cc1)C(=O)NCC(=O)N[C@H](CCCNC(=N)N)C(=O)N[C@H](CCCCN)C(=O)N[C@H](CCCCN)C(=O)N[C@H](CCCNC(=N)N)C(=O)N[C@H](CCCNC(=N)N)C(=O)N[C@H](CCC(N)=O)C(=O)N[C@H](CCCNC(=N)N)C(=O)N[C@H](CCCNC(=N)N)C(=O)N[C@H](CCCNC(=N)N)C(N)=O` [SEQ ID NO: 50, Ac-cygrkkrrqrrr-NH2], the EC50 in data set [1] was found to be 2 µM.

On to `CC(=O)N[C@H](CS)C(=O)N[C@H](C)C(=O)N[C@H](CCCNC(=N)N)C(=O)N[C@H](CCCNC(=N)N)C(=O)N[C@H](CCCNC(=N)N)C(=O)N[C@H](C)C(=O)N[C@H](CCCNC(=N)N)C(=O)N[C@H](C)C(=O)N[C@H](CCCNC(=N)N)C(N)=O` [SEQ ID NO: 79, Ac-carrrarar-NH2] (Ac-[dC][dA][dR][dR][dR][dA][dR][dA][dR]-NH2), for which the concentration for a half-maximal effect (EC50) in data set [1] amounted to 13 µM.

With `CC(=O)N[C@H](CS)C(=O)N[C@H](C)C(=O)N[C@H](C)C(=O)N[C@H](CCCNC(=N)N)C(=O)N[C@H](CCCNC(=N)N)C(=O)N[C@H](CCCNC(=N)N)C(=O)N[C@H](CCCNC(=N)N)C(=O)N[C@H](CCCNC(=N)N)C(=O)N[C@H](CCCNC(=N)N)C(N)=O` [SEQ ID NO: 76, Ac-caarrrrrr-NH2] (Ac-[dC][dA][dA][dR][dR][dR][dR][dR][dR]-NH2), the EC50 in data set [1] was found to be 4.5 µM.

Consider `CC(=O)N[C@H](CS)C(=O)N[C@H](C)C(=O)N[C@H](CCCCN)C(=O)N[C@H](CCCNC(=N)N)C(=O)N[C@H](CCCNC(=N)N)C(=O)N[C@H](C)C(=O)N[C@H](CCCNC(=N)N)C(N)=O` [SEQ ID NO: 72, Ac-cakrrar-NH2] (Ac-[dC][dA][dK][dR][dR][dA][dR]-NH2), for which the “Histamine in vitro Fold change of non-treated at 10 uM” value in data set [2] came out at 1.1 fold. The EC50 in data set [1] is 35 µM.

In the case of `CC(=O)NCCC(=O)N[C@H](CS)C(=O)N[C@H](CCCNC(=N)N)C(=O)N[C@H](CCCNC(=N)N)C(=O)N[C@H](CCCNC(=N)N)C(=O)N[C@H](CCCNC(=N)N)C(=O)N[C@H](CCCNC(=N)N)C(=O)N[C@H](CCCNC(=N)N)C(N)=O` [SEQ ID NO: 30, Ac-bAla-crrrrrr-NH2] (Ac-[βAla][dC][dR][dR][dR][dR][dR][dR]-NH2), in the data set with plasma PTH (Table 3), the “0.5 mg/kg IV bolus % PTH AUC of saline control” value (from here on “0.5 mg/kg IV bolus % PTH AUC”) stood at 0%. In data set [1], the EC50 was found to be 1 µM.

On to `N=C(N)NCCC[C@@H](NC(=O)[C@@H](CCCNC(=N)N)NC(=O)[C@@H](CCCNC(=N)N)NC(=O)[C@@H](CCCNC(=N)N)NC(=O)[C@@H](CCCNC(=N)N)NC(=O)[C@@H](CCCNC(=N)N)NC(=O)[C@H](N)CS)C(N)=O` [SEQ ID NO: 80, crrrrrr-NH2], for which the concentration giving a half-maximal response (EC50) in data set [1] came out at 1.1 µM.

In the case of `CC(=O)N[C@H](C)C(=O)N[C@H](CCCNC(=N)N)C(=O)N[C@H](CCCNC(=N)N)C(=O)N[C@H](CCCNC(=N)N)C(=O)N[C@H](C)C(=O)N[C@H](CCCNC(=N)N)C(N)=O` [SEQ ID NO: 29, Ac-arrrar-NH2] (Ac-[dA][dR][dR][dR][dA][dR]-NH2), in the data set with plasma PTH (9 mg/kg IV bolus, FIG. 2B), the “PTH-lowering activity in normal rats” value was “did not reduce PTH concentration”. Further, the “potency to activate the human CaSR in vitro” value in data set [1] (HEK-293 cell assay) is recorded as “dramatically reduced the ability of the compound to activate the CaSR”. Moreover, the EC50 in data set [1] was > 1000 µM.

Turning to `CC(=O)N[C@H](CS)C(=O)N[C@H](C)C(=O)N[C@H](CCCNC(=N)N)C(=O)N[C@H](CCCCN)C(=O)N[C@H](CCCNC(=N)N)C(=O)N[C@H](C)C(=O)N[C@H](CCCNC(=N)N)C(N)=O` [SEQ ID NO: 73, Ac-carkrar-NH2] (Ac-[dC][dA][dR][dK][dR][dA][dR]-NH2), the “Histamine in vitro Fold change of non-treated at 10 uM” value in data set [2] was found to be 1.4 fold. For the same molecule, in data set [1], the EC50 came out at 31 µM.

With `CC(=O)N[C@H](CCS)C(=O)N[C@H](CCCNC(=N)N)C(=O)N[C@H](CCCNC(=N)N)C(=O)N[C@H](CCCNC(=N)N)C(=O)N[C@H](CCCNC(=N)N)C(=O)N[C@H](CCCNC(=N)N)C(=O)N[C@H](CCCNC(=N)N)C(N)=O` [SEQ ID NO: 32, Ac-dHcy-rrrrrr-NH2], the “0.5 mg/kg IV bolus % PTH AUC” value in the data set with plasma PTH (Table 3) is 21%. Further, the concentration giving a half-maximal response (EC50) in data set [1] amounted to 2 µM.

As for `CC(=O)N[C@H](CS)C(=O)N[C@H](CCC(=O)O)C(=O)N[C@H](CCCNC(=N)N)C(=O)N[C@H](CCCNC(=N)N)C(=O)N[C@H](CCCNC(=N)N)C(=O)N[C@H](C)C(=O)N[C@H](CCCNC(=N)N)C(N)=O` [SEQ ID NO: 69, Ac-cerrrar-NH2] (Ac-[dC][dE][dR][dR][dR][dA][dR]-NH2), the “0.5 mg/kg IV bolus % PTH AUC” value in the data set on plasma PTH (Table 6) came out at 103%. For the same molecule, the EC50 in data set [1] was determined as 31 µM.

With “Ac-c(PEG2-C)rrrrrr-NH2 (XXXXXXX; D-residues) [SEQ ID NO: 59]”, the EC50 in data set [1] was 0.02 µM.

With `CC(=O)N[C@H](CS)C(=O)N[C@@H](C(=O)N[C@H](CCCNC(=N)N)C(=O)N[C@H](CCCNC(=N)N)C(=O)N[C@H](CCCNC(=N)N)C(=O)N[C@@H](C(=O)N[C@H](CCCNC(=N)N)C(N)=O)C(C)C)C(C)C` [SEQ ID NO: 65, Ac-cvrrrvr-NH2] (Ac-[dC][dV][dR][dR][dR][dV][dR]-NH2), the EC50 in data set [1] worked out at 35 µM.

Take `CC(=O)N[C@H](CS)C(=O)N[C@H](CCCNC(=N)N)C(=O)N[C@H](CCCNC(=N)N)C(=O)N[C@H](CCCNC(=N)N)C(=O)N[C@H](CCCNC(=N)N)C(=O)N[C@H](CCCNC(=N)N)C(=O)N[C@H](CCCNC(=N)N)C(=O)N[C@H](CCCNC(=N)N)C(N)=O` [SEQ ID NO: 7, Ac-crrrrrrr-NH2] (Ac-[dC][dR][dR][dR][dR][dR][dR][dR]-NH2): the EC50 in data set [1] amounted to 0.6 µM.

Consider `CC(=O)N[C@H](CS)C(=O)N[C@H](C)C(=O)N[C@H](CCCNC(=N)N)C(=O)N[C@H](CCCNC(=N)N)C(=O)N[C@H](CCCNC(=N)N)C(=O)N[C@H](C)C(=O)N[C@H](CCCNC(=N)N)C(=O)O` [SEQ ID NO: 74, Ac-carrrar-OH], for which the EC50 in data set [1] came out at 31 µM.

Take `CC(=O)N[C@@H](CS)C(=O)N[C@H](C)C(=O)N[C@@H](CCCNC(=N)N)C(=O)N[C@H](CCCNC(=N)N)C(=O)N[C@@H](CCCNC(=N)N)C(=O)N[C@H](C)C(=O)N[C@@H](CCCNC(=N)N)C(N)=O` [SEQ ID NO: 44, Ac-CaRrRaR-NH2]: in data set [1] (human CaSR, HEK293), the “fold decrease in potency relative to Ac-carrrar-NH2 (SEQ ID NO:26)” value is reported as < 4 fold.

`CC(=O)N[C@H](CSSCCC(=O)O)C(=O)N[C@H](C)C(=O)N[C@H](CCCNC(=N)N)C(=O)N[C@H](CCCNC(=N)N)C(=O)N[C@H](CCCNC(=N)N)C(=O)N[C@H](C)C(=O)N[C@H](CCCNC(=N)N)C(N)=O` [SEQ ID NO: 56, Ac-c(Mpa)arrrar-NH2]: in the data set with plasma PTH (Table 8), the “0.5 mg/kg IV bolus % PTH AUC” value came out at 25%. In addition, the EC50 in data set [1] came to 21 µM.

Take `CC(=O)N[C@H](CS)C(=O)N[C@H](C)C(=O)N[C@H](CCCNC(=N)N)C(=O)N[C@H](C)C(=O)N[C@H](CCCNC(=N)N)C(=O)N[C@H](C)C(=O)N[C@H](CCCNC(=N)N)C(=O)N[C@H](C)C(=O)N[C@H](CCCNC(=N)N)C(N)=O` [SEQ ID NO: 78, Ac-carararar-NH2] (Ac-[dC][dA][dR][dA][dR][dA][dR][dA][dR]-NH2): the EC50 in data set [1] was 5.3 µM.
